According to US20250230138A1, “COMPOUNDS HAVING A T-STRUCTURE FORMED BY AT LEAST FOUR CYCLES FOR USE IN THE TREATMENT OF CANCER AND OTHER INDICATIONS” (TheRas, Inc., priority 2022, published 2025):
Read-outs that look alike come from different tables or passages of the source.

Experiments:
[1] = biological target: Cys242 in human PIK3CA (157-299) (Homo sapiens (Human), UniProt P42336); experiment: Covalent modification assay using MALDI-TOF MS; type: biochemical; conditions: 4 h reaction time point; 1 μM protein target, 1:5 protein to compound ratio (compounds 853-1279)
Sequence of Cys242 in human PIK3CA (157-299) (P42336 157-299): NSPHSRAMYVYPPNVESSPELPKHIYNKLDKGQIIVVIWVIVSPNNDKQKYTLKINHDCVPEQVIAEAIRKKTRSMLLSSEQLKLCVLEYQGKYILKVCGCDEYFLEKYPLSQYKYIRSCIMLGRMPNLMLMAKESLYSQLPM
Procedure, shortened: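 PIK3CA (157-299), 3.33 or 1 μM in 20 mM HEPES, 150 mM NaCl, 2 mM MgCl2, pH 7.3, was incubated with compound at room temperature in the dark for 15 min, 30 min, 2 h or 4 h. Linear MALDI-TOF read-out; % modification = adduct peak height over summed heights of all protein species.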

pAKT in BT474 cells = experiment: Cell-based pAKT HTRF assay in BT474 cells; conditions: BT474 cells, 4 hr incubation, Compounds 1000-1279, read-out: pAKT inhibition IC50 in BT474 cells
Procedure, shortened: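 Cells grown in DMEM with 10% FBS were exposed to compounds for 4 hr in 0.25% DMSO, using a 9-point, 3-fold dilution series that starts at 3 μM. Lysates were incubated with d2 and Eu Cryptate antibodies for 4–24 h at room temperature, and HTRF was read at 615 nm emission.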

Compound | % of modification [1] | IC50 (pAKT in BT474 cells) [µM] | IC50 (pAKT in BT474 cells; Homo sapiens, BT-474) [µM]
C=CC(=O)N1CCc2cc(-c3nc(-c4ccc5cn(C)nc5c4)c4ccsc4c3-c3c(F)cc(F)cc3OCCOC)nn2CC1 [Compound 1027] | A (percent of modification of PIK3CA protein ≥75%) | < 0.1 | –
C=CC(=O)N1CCn2nc(-c3nc(-c4cnn(C5CN(C)C5)c4)c4ccsc4c3-c3c(F)cc(F)cc3OCCOC)cc2C1C (stereo not shown) [Compound 1029] | A (percent of modification of PIK3CA protein ≥75%) | < 0.1 | –
C=CC(=O)N1CCn2nc(-c3nc(-c4cnnc(C5CC5)c4)c4ccsc4c3-c3c(F)cc(F)cc3OCCOC)cc2C1C (stereo not shown) [Compound 1030] | A (percent of modification of PIK3CA protein ≥75%) | < 0.1 | –
C=CC(=O)N1CCn2nc(-c3nc(-c4ccc(=O)n(C5CN(C)C5)c4)c4ccsc4c3-c3c(F)cc(F)cc3OCCOC)cc2C1C (stereo not shown) [Compound 1031] | B (50%<percent of modification <75%) | 0.1 to 1 | –
C=CC(=O)N1CCc2nc(-c3nc(-c4ccc5c(cnn5C)c4)c4ccsc4c3-c3c(F)cc(F)cc3OCCO)sc2C1 [Compound 1032] | D (percent of modification <25%) | > 1 | –
C=CC(=O)N1CCn2nc(-c3nc(-c4cnn(C5CN(C)C5)c(=O)c4)c4ccsc4c3-c3c(F)cc(F)cc3OCCOC)cc2C1C (stereo not shown) [Compound 1035] | A (percent of modification of PIK3CA protein ≥75%) | < 0.1 | –
C=CC(=O)N1CCn2nc(-c3nc(-c4cc(F)c(=O)n(CC(F)F)c4)c4ccsc4c3-c3c(F)cc(F)cc3OCCOC)cc2C1C (stereo not shown) [Compound 1036] | A (percent of modification of PIK3CA protein ≥75%) | < 0.1 | –
C=CC(=O)N1CCn2nc(-c3nc(-c4cnc(N(C)C)nc4)c4ccsc4c3-c3c(F)cc(F)cc3OCCOC)cc2C1C (stereo not shown) [Compound 1037] | A (percent of modification of PIK3CA protein ≥75%) | < 0.1 | –
C=CC(=O)N1CCn2nc(-c3nc(N4CC(CC(=O)N(C)C)C4)c4ccsc4c3-c3c(F)cc(F)cc3OCCOC)cc2C1C (stereo not shown) [Compound 1039] | A (percent of modification of PIK3CA protein ≥75%) | > 1 | –
C=CC(=O)N1CCn2nc(-c3nc(-c4ccn5ccnc5c4)c4ccsc4c3-c3c(F)cc(F)cc3OCCOC)cc2C1C (stereo not shown) [Compound 1040] | A (percent of modification of PIK3CA protein ≥75%) | < 0.1 | –
C=CC(=O)N1CCn2nc(-c3nc(-c4ccc(C5(F)CN(C)C5)cc4)c4ccsc4c3-c3c(F)cc(F)cc3OCCOC)cc2C1C (stereo not shown) [Compound 1044] | A (percent of modification of PIK3CA protein ≥75%) | < 0.1 | –
C=CC(=O)N1CCn2nc(-c3nc(-c4cnnc(N5CCN(C)CC5)c4)c4ccsc4c3-c3c(F)cc(F)cc3OCCOC)cc2C1C (stereo not shown) [Compound 1045] | A (percent of modification of PIK3CA protein ≥75%) | < 0.1 | –
C=CC(=O)N1CCn2nc(-c3nc(-c4cccc(OCCN(C)C)c4)c4ccsc4c3-c3c(F)cc(F)cc3OCCOC)cc2C1C (stereo not shown) [Compound 1046] | A (percent of modification of PIK3CA protein ≥75%) | < 0.1 | –
C=CC(=O)N1CCn2nc(-c3nc(-c4ccc(N5CCN(C)CC5)nc4)c4ccsc4c3-c3c(F)cc(F)cc3OCCOC)cc2C1C (stereo not shown) [Compound 1048] | A (percent of modification of PIK3CA protein ≥75%) | < 0.1 | –
C=CC(=O)N1CCc2nc(-c3nc(-c4ccc5c(c4)CNC5=O)c4ccsc4c3-c3c(F)cc(F)cc3OCCO)sc2C1 [Compound 1052] | A (percent of modification of PIK3CA protein ≥75%) | < 0.1 | –
C=CC(=O)N1CCc2nc(-c3nc(-c4ccc5nn(C)cc5c4)c4ccsc4c3-c3c(F)cc(F)cc3OCCO)sc2C1 [Compound 1053] | A (percent of modification of PIK3CA protein ≥75%) | < 0.1 | –
C=CC(=O)N1CCn2nc(-c3nc(N4CC5(CCN(C)C5)C4)c4ccsc4c3-c3c(F)cc(F)cc3OCCOC)cc2C1C (stereo not shown) [Compound 1054] | C (25%≤percent of modification <50%) | 0.1 to 1 | –
C=CC(=O)N1CCn2nc(-c3nc(N4CCC5(CN(C)C5)C4)c4ccsc4c3-c3c(F)cc(F)cc3OCCOC)cc2C1C (stereo not shown) [Compound 1055] | C (25%≤percent of modification <50%) | 0.1 to 1 | –
C=CC(=O)N1CCn2nc(-c3nc(-c4cnc(OCCN(C)C)nc4)c4ccsc4c3-c3c(F)cc(F)cc3OCCOC)cc2C1C (stereo not shown) [Compound 1056] | A (percent of modification of PIK3CA protein ≥75%) | < 0.1 | –

Compound | % of modification [1] | IC50 (pAKT in BT474 cells) [µM] | IC50 (pAKT in BT474 cells; Homo sapiens, BT-474) [µM]
C=CC(=O)N1CCn2nc(-c3nc(-c4ccc(C5CN(C)C5)cc4)c4ccsc4c3-c3c(F)cc(F)cc3OCCOC)cc2C1C (stereo not shown) [Compound 1057] | A (percent of modification of PIK3CA protein ≥75%) | < 0.1 | –
C=CC(=O)N1CCn2nc(-c3nc(-c4cnc5c(c4)N(C)C(=O)C5)c4ccsc4c3-c3c(F)cc(F)cc3OCCOC)cc2C1C (stereo not shown) [Compound 1058] | A (percent of modification of PIK3CA protein ≥75%) | < 0.1 | –
C=CC(=O)N1CCn2nc(-c3nc(-c4ccc(C(=O)NCCN(C)C)cc4)c4ccsc4c3-c3c(F)cc(F)cc3OCCOC)cc2C1C (stereo not shown) [Compound 1059] | A (percent of modification of PIK3CA protein ≥75%) | < 0.1 | –
C=CC(=O)N1CCn2nc(-c3nc(-c4ccc(CCN(C)C)cc4)c4ccsc4c3-c3c(F)cc(F)cc3OCCOC)cc2C1C (stereo not shown) [Compound 1060] | A (percent of modification of PIK3CA protein ≥75%) | < 0.1 | –
C=CC(=O)N1CCn2nc(-c3nc(-c4cccc(CN(C)C)c4)c4ccsc4c3-c3c(F)cc(F)cc3OCCOC)cc2C1C (stereo not shown) [Compound 1061] | A (percent of modification of PIK3CA protein ≥75%) | < 0.1 | –
C=CC(=O)N1CCn2nc(-c3nc(-c4ccc(OCCN5CC(F)(F)C5)cc4)c4ccsc4c3-c3c(F)cc(F)cc3OCCOC)cc2C1C (stereo not shown) [Compound 1062] | A (percent of modification of PIK3CA protein ≥75%) | < 0.1 | –
C=CC(=O)N1CCn2nc(-c3nc(-c4cc5c(cc4OC)C(=O)NC5)c4ccsc4c3-c3c(F)cc(F)cc3OCCOC)cc2[C@H]1C [Compound 1063] | A (percent of modification of PIK3CA protein ≥75%) | < 0.1 | –
C=CC(=O)N1CCn2nc(-c3nc(N4CC5CCC(C4)N5C(C)=O)c4ccsc4c3-c3c(F)cc(F)cc3OCCOC)cc2C1C (stereo not shown) [Compound 1064] | C (25%≤percent of modification <50%) | 0.1 to 1 | –
C=CC(=O)N1CCn2nc(-c3nc(-c4ccc(OCCN(C)C)nc4)c4ccsc4c3-c3c(F)cc(F)cc3OCCOC)cc2C1C (stereo not shown) [Compound 1065] | A (percent of modification of PIK3CA protein ≥75%) | < 0.1 | –
C=CC(=O)N1CCc2ccc(-c3nc(-c4ccc5c(c4)CNC(=O)C5)c4ccsc4c3-c3c(F)cc(F)cc3OCCOC)cc2C1 [Compound 1066] | D (percent of modification <25%) | 0.1 to 1 | –
C=CC(=O)N1CCc2ccc(-c3nc(-c4ccc5c(c4)C(=O)NC5)c4ccsc4c3-c3c(F)cc(F)cc3OCCOC)cc2C1 [Compound 1067] | D (percent of modification <25%) | > 1 | –
C=CC(=O)N1CCc2ccc(-c3nc(-c4cnc(N(C)C)nc4)c4ccsc4c3-c3c(F)cc(F)cc3OCCOC)cc2C1 [Compound 1068] | D (percent of modification <25%) | > 1 | –
C=CC(=O)N1CCc2ccc(-c3nc(-c4cnc(N5CCN(C)CC5)nc4)c4ccsc4c3-c3c(F)cc(F)cc3OCCOC)cc2C1 [Compound 1069] | D (percent of modification <25%) | > 1 | –
C=CC(=O)N1CCc2nc(-c3nc(-c4ccc5c(c4)CNC(=O)C5)c4ccsc4c3-c3c(F)cc(F)cc3OCCOC)sc2C1 [Compound 1070] | A (percent of modification of PIK3CA protein ≥75%) | < 0.1 | –
C=CC(=O)N1Cc2cc(-c3nc(C45CC(C(=O)NC)(C4)C5)c4ccsc4c3-c3c(F)cc(F)cc3OCCOC)nn2C[C@H]1C [Compound 1071, 3-((S)-6-((R)-5-acryloyl-6-methyl-4,5,6,7-tetrahydropyrazolo[1,5-a]pyrazin-2-yl)-7-(2,4-difluoro-6-(2-methoxyethoxy)phenyl)thieno[3,2-c]pyridin-4-yl)-N-methylbicyclo[1.1.1]pentane-1-carboxamide] | B (50%<percent of modification <75%) | – | < 0.1
C=CC(=O)N1CCn2nc(-c3nc(-c4cc5c(cc4OC)C(=O)NC5)c4ccsc4c3-c3c(F)cc(F)cc3OCCO)cc2C1C (stereo not shown) [Compound 1072] | A (percent of modification of PIK3CA protein ≥75%) | < 0.1 | –
C=CC(=O)N1CCn2nc(-c3nc(-c4ccc(OCCN5CCC5)cc4)c4ccsc4c3-c3c(F)cc(F)cc3OCCOC)cc2C1C (stereo not shown) [Compound 1073] | A (percent of modification of PIK3CA protein ≥75%) | < 0.1 | –
C=CC(=O)N1CCn2nc(-c3nc(-c4ccn5cncc5c4)c4ccsc4c3-c3c(F)cc(F)cc3OCCOC)cc2C1C (stereo not shown) [Compound 1074] | A (percent of modification of PIK3CA protein ≥75%) | < 0.1 | –
C=CC(=O)N1CCn2nc(-c3nc(-c4ccc5c(C)n(C)nc5c4)c4ccsc4c3-c3c(F)cc(F)cc3OCCO)cc2C1C (stereo not shown) [Compound 1076] | A (percent of modification of PIK3CA protein ≥75%) | < 0.1 | –
